Experimental data reported in the supplement of paper PMC4862054.

Columns and labels:
Conditions in all cases: incubation time: 72 h
HCC1143 [1] = test: drug sensitivity score (DSS), CellTiter-Blue viability (DSS (AUC-based score)); higher = stronger viability inhibition; extreme values may be limits of the assay
Procedure: (§1)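 DSRT with the CellTiter-Blue (resazurin reduction) viability readout, fluorescence 560/590 nm, 72 h incubation. Plates were normalised to DMSO and benzethonium chloride controls. DSS is computed from the area under the fitted dose-response curve (5 or 9 concentrations).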

MFM-223 [2] = test: as above
Procedure: as §1

SK-BR-3 [3] = test: as above
Procedure: as §1

BT-474 = test: as above
Procedure: as §1

HCC1599 [4] = test: as above
Procedure: as §1

CAL-85-1 [5] = test: as above
Procedure: as §1

MDA-MB-436 [6] = test: as above
Procedure: as §1

MDA-MB-231 [7] = test: as above
Procedure: as §1

HDQ-P1 [8] = test: as above
Procedure: as §1

HCC1143 [9] = test: normalised viability (% of control), CellTiter-Blue; higher = more viable cells (about 100 = DMSO control)
Outline: (§2)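 The reported figure is normalised viability at a single listed concentration of the series. Breast cancer cell lines (20 µl suspension) went onto 384-well plates holding compound in 5 µl medium for 72 h. CellTiter-Blue (2.5 µl, 2 h, 37 °C) was read by fluorescence at 560/590 nm, and each plate was scaled to vehicle at 100 and a positive kill control at 0.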

MFM-223 [10] = test: as above
Outline: as §2

SK-BR-3 [11] = test: as above
Outline: as §2

CAL-148 = test: as above
Outline: as §2

HCC1599 [12] = test: as above
Outline: as §2

BT-549 = test: as above
Outline: as §2

CAL-85-1 [13] = test: as above
Outline: as §2

MDA-MB-436 [14] = test: as above
Outline: as §2

CAL-120 = test: as above
Outline: as §2

HCC1937 = test: as above
Outline: as §2

MDA-MB-468 = test: as above
Outline: as §2

MDA-MB-231 [15] = test: as above
Outline: as §2

HDQ-P1 [16] = test: as above
Outline: as §2

DU-4475 = test: as above
Outline: as §2

MDA-MB-453 = test: as above
Outline: as §2

C[C@@H](C(=O)O)c1ccc(-c2ccccc2)c(F)c1 [Tarenflurbil]
Conditions | drug sensitivity score
BT-474 | 0
CAL-85-1 [5] | 0
HCC1143 [1] | 0
HCC1599 [4] | 0
HDQ-P1 [8] | 0
MDA-MB-231 [7] | 0
MDA-MB-436 [6] | 0
MFM-223 [2] | 0
SK-BR-3 [3] | 0

normalised viability [%]
Conditions | 3 nM | 10 nM | 30 nM | 100 nM | 1000 nM | 10000 nM
BT-549 | – | 97.6 | – | – | 104 | 112
CAL-85-1 [13] | 87.2 | – | 88.4 | 93 | – | –
CAL-120 | – | 94 | – | – | 92.2 | 99.4
CAL-148 | 80 | – | 96.6 | 87.3 | – | –
DU-4475 | 101 | – | 95.6 | 108 | – | –
HCC1143 [9] | – | 86.4 | – | – | 95.3 | 86.9
HCC1599 [12] | – | 94.6 | – | – | 118 | 106
HCC1937 | – | 84.3 | – | – | 92.9 | 102
HDQ-P1 [16] | 106 | – | 106 | 98.9 | – | –
MDA-MB-231 [15] | – | 97.8 | – | – | 88.6 | 103
MDA-MB-436 [14] | – | 104 | – | – | 90.4 | 138
MDA-MB-453 | 106 | – | 89.2 | 85.6 | – | –
MDA-MB-468 | – | 100 | – | – | 119 | 90
MFM-223 [10] | – | 93.6 | – | – | 97.2 | 93.2
SK-BR-3 [11] | – | 99.3 | – | – | 105 | 126
